Experimental data from ChEMBL document CHEMBL1201862, “PubChem BioAssay data set” (2004).
One block for each compound: values may come before it. Calls of active or inactive are those of the source.

Key:
Genome polyprotein = Genome polyprotein (Hepatitis C virus, UniProt Q2Q167); assay: disruption of hepatitis C core self-association – biochemical, TR-FRET, dose response (AID 2159); set-up: species or system Hepacivirus hominis;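 note: blocks dimerization of HCV core protein measured by TR-FRET between tagged core106 pairs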
Large T antigen = Large T antigen (Simian virus 40, UniProt P03070); type: functional, Betapolyomavirus macacae;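 note: Confirmatory-stage PubChem screen for compounds that inhibit SV40 T antigen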
Troponin, cardiac muscle = Troponin, cardiac muscle (Homo sapiens, UniProt P19429+P45379+P63316); assay: compounds desensitizing RTF to calcium – biochemical, fluorescence, cardiac regulated thin filaments, triplicate IC50, dose response (AID 504742); type: protein-complex assay
[1] = molecular target: T1, Small ubiquitin-related modifier 1 (Homo sapiens, UniProt P63165); assay: SUMO1 protein interaction blockers, potency – biochemical, fluorescence polarization, uHTS hits, dose response (AID 624382); type: functional; details: read-out: IC50_Mean
[2] = molecular target: T1, Small ubiquitin-related modifier 1; assay: SUMO1 protein-protein binding blockers, potency – biochemical, FRET, dose response (AID 624383); type: functional; details: read-out: IC50_Mean
Caspase-6 = molecular target: T2, Caspase-6 (Homo sapiens, UniProt P55212); assay: inhibition of CASP6 peptide cleavage – biochemical, VEID-R110 fluorescence, cherry-pick, dose response (AID 720632)
T2 sequence (P55212 whole entry): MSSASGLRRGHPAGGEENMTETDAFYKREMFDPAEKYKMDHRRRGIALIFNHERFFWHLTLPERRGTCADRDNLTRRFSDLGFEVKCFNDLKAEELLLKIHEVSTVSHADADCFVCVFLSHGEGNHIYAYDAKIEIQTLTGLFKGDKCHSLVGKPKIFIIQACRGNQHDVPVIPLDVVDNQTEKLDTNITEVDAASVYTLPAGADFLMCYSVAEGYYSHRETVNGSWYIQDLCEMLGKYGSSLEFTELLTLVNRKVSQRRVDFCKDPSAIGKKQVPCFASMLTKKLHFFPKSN

Caspase-9 = Caspase-9 (Homo sapiens, UniProt P55211); assay: inhibitors of purified CASP9 protease – biochemical, fluorescence, plate reader, cherry-picked samples, selectivity assay for caspase-6 inhibitor project, dose response (AID 743293)
[3] = molecular target: NAD-dependent protein deacylase sirtuin-5, mitochondrial (Homo sapiens, UniProt Q9NXA8); assay: sirtuin-5 deacylation blockers, concentration series – biochemical, fluorescence imaging, cherry-pick, set 5, dose response (AID 720591);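 note: desuccinylation of succinyl peptide AMC substrate read as fluorescence after trypsin release; potency of inhibitors that lower fluorescence and may act on trypsin instead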
Caspase-8 = Caspase-8 (Homo sapiens, UniProt Q14790); assay: inhibitors of purified CASP8 protease – biochemical, Z-IETD-R110 fluorescence, cherry-picked samples, selectivity assay for caspase-6 inhibitor project, dose response (AID 743294)
[4] = molecular target: T3, Ubiquitin-conjugating enzyme E2 N (Homo sapiens, UniProt P61088); type: functional;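 note: Dose-response confirmation in a TR-FRET assay detecting UBC13-driven polyubiquitin chain formation, inhibition measured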
T3 sequence (P61088 whole entry): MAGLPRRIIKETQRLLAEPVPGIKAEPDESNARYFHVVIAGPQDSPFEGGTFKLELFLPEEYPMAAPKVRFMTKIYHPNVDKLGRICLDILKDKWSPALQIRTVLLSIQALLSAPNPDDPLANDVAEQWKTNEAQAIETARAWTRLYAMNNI

[5] = molecular target: DNA damage-inducible transcript 3 protein (Mus musculus, UniProt P35639); type: functional, Cricetulus griseus
Leucine aminopeptidase = molecular target: T4, Leucine aminopeptidase (Plasmodium falciparum 3D7, UniProt Q8IL11); assay: P. falciparum M17LAP inhibitors, primary screen, biochemical, fluorogenic H-Leu-NHMec substrate, 1536-well (AID 1619); type: functional
T4 sequence (Q8IL11 whole entry): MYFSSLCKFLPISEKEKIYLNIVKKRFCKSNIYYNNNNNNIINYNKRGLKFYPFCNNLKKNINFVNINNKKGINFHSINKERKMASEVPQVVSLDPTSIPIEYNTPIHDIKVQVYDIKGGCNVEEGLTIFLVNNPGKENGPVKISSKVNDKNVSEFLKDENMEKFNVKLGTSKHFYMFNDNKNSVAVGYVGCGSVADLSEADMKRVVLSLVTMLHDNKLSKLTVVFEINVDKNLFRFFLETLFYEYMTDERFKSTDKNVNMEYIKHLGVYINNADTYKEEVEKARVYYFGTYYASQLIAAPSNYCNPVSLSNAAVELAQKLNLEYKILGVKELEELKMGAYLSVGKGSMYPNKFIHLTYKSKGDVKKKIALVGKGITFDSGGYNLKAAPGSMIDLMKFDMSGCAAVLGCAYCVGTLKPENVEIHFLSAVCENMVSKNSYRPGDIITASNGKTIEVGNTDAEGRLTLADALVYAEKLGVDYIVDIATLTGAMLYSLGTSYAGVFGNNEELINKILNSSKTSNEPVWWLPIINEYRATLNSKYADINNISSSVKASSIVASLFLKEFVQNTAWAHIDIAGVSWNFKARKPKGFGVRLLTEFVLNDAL

[6] = molecular target: DNA dC->dU-editing enzyme APOBEC-3A (Homo sapiens, UniProt P31941); assay: A3A deaminase inhibition for selectivity – biochemical, dose response (AID 504722); type: functional
[7] = molecular target: DNA dC->dU-editing enzyme APOBEC-3G (Homo sapiens, UniProt Q9HC16); assay: Dose Response confirmation of small molecule APOBEC3G DNA Deaminase Inhibitors via a fluorescence-based single-stranded DNA deaminase assay. [Related pubchem assays (depositor defined):AID493012, AID493028]; type: functional
[8] = molecular target: T5, Voltage-gated N-type calcium channel alpha-1B subunit/Amyloid beta A4 precursor protein-binding family A member 1 (Homo sapiens, UniProt Q00975+Q02410); type: protein assay
[9] = molecular target: T5, Voltage-gated N-type calcium channel alpha-1B subunit/Amyloid beta A4 precursor protein-binding family A member 1; type: protein assay; remark: listed apart in the source

T5 sequence (Q00975 whole entry): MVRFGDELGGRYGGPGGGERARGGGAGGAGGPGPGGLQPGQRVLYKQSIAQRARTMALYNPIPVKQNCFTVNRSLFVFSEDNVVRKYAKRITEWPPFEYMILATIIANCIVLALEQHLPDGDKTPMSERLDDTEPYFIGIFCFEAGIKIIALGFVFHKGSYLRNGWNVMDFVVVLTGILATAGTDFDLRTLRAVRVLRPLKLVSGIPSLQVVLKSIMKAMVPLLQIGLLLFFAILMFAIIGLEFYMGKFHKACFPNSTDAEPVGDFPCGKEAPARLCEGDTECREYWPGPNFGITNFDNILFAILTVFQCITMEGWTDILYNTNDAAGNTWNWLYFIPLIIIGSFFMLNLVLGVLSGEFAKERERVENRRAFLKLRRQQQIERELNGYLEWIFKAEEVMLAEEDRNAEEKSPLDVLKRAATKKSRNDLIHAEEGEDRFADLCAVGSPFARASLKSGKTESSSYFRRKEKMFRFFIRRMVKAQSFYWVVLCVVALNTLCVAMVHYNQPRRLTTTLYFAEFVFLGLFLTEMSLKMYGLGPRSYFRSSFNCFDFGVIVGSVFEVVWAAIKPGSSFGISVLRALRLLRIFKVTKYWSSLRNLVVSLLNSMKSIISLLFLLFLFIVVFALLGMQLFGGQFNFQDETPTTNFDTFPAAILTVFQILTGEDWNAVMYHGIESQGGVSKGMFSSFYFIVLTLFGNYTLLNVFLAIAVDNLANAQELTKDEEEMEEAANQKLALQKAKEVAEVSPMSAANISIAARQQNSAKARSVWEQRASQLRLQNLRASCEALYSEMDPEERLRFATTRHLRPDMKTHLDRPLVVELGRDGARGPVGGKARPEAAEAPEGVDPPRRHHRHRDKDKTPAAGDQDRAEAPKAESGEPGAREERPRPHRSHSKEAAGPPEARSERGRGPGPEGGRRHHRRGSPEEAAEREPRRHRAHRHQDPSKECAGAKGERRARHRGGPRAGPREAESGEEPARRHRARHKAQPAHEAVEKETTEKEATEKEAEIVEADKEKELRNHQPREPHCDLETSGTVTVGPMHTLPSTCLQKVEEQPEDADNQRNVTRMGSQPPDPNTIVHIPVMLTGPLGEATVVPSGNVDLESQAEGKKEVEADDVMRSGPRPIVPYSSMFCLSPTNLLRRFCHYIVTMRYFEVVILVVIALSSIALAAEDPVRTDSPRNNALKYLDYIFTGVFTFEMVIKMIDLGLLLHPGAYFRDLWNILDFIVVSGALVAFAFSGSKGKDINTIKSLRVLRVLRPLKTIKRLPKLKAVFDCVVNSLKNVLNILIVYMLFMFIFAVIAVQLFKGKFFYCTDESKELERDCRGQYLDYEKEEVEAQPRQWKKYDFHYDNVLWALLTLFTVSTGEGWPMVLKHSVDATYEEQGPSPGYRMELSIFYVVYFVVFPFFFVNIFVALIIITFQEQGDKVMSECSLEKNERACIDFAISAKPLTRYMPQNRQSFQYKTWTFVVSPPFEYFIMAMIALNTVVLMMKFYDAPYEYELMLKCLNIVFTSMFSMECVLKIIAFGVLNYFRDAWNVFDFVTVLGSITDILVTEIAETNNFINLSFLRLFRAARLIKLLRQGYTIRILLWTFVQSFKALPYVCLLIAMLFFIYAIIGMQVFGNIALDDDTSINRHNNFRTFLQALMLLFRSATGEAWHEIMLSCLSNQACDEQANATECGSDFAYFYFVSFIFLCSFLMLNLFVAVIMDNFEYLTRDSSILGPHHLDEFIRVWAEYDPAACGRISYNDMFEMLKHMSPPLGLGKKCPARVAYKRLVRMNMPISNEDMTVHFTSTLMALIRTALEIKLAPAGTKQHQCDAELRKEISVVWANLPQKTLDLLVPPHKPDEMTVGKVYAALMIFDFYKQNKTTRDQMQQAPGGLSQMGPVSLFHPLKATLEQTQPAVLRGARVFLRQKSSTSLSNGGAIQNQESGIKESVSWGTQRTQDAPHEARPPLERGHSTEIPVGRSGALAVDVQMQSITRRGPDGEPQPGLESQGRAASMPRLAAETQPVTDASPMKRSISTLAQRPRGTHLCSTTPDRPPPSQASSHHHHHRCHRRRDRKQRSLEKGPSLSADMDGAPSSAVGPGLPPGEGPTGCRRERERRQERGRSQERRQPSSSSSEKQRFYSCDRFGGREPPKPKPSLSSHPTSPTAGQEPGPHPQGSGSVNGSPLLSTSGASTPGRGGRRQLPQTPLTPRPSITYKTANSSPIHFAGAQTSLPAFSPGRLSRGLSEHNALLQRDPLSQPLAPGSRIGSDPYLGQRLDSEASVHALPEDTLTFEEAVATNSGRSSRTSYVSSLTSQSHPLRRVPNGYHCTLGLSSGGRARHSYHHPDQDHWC
T5 sequence (Q02410 whole entry): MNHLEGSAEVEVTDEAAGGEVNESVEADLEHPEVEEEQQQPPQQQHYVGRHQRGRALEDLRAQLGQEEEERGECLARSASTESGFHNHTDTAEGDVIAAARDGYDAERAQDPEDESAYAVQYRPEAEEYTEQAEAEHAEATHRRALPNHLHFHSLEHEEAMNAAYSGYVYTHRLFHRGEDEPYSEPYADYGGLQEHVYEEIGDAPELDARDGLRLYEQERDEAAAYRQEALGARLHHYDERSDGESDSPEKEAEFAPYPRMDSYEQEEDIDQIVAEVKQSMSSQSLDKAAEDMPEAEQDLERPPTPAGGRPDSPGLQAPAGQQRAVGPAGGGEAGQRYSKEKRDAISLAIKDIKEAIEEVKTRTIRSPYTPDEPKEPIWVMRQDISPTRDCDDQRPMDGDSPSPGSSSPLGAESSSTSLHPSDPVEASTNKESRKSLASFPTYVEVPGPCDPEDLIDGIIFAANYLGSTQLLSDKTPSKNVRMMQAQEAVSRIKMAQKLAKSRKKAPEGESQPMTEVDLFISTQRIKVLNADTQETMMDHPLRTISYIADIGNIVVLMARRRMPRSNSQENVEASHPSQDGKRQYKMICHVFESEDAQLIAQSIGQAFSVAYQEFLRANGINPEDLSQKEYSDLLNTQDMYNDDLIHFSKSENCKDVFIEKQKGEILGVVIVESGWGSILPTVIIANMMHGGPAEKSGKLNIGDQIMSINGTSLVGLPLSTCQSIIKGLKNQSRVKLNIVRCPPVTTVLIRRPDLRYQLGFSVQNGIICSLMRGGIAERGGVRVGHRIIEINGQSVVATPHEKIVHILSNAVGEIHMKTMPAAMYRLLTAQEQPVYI
T1 sequence (P63165 whole entry): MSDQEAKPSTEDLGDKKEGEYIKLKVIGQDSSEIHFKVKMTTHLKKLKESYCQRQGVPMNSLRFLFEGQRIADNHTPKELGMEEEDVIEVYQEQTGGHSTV
Sequence of Large T antigen (P03070 whole entry): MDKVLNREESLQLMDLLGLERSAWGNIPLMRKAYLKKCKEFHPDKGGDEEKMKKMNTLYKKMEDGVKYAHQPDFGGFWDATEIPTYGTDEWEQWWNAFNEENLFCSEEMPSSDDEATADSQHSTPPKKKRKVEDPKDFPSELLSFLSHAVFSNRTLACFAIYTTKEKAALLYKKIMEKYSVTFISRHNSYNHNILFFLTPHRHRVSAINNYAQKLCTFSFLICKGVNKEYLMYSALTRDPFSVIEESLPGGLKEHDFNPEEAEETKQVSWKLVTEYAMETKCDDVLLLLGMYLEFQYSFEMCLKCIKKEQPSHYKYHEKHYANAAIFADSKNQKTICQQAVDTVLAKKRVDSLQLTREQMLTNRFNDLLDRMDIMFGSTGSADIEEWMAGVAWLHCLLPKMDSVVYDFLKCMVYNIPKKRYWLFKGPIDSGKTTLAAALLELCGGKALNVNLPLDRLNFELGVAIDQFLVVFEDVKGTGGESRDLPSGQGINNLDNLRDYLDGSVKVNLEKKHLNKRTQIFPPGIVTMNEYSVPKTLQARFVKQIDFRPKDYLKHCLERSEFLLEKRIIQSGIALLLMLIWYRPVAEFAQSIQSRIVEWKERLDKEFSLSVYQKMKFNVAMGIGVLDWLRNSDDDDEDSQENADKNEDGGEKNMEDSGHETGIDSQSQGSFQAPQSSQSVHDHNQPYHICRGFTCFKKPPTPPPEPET
Sequence of NAD-dependent protein deacylase sirtuin-5, mitochondrial (Q9NXA8 whole entry): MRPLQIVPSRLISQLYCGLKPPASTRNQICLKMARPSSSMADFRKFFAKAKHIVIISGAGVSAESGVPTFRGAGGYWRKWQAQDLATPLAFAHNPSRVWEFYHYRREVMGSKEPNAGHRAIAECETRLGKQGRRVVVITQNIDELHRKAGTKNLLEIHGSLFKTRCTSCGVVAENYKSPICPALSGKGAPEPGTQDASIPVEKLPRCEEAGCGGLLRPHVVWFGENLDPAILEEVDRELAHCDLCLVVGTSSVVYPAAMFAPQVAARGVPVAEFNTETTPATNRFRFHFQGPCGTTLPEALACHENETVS
Sequence of Caspase-9 (P55211 1-315 limits assumed): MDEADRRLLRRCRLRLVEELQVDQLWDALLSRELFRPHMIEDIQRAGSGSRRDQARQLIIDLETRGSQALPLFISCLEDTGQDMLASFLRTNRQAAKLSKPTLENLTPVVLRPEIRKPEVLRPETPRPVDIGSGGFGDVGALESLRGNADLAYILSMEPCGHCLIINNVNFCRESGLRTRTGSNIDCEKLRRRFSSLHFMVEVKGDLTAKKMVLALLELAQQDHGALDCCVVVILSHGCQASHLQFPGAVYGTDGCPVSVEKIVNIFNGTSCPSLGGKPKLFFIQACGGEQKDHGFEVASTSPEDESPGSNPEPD
Sequence of Caspase-9 (P55211 331-416 limits assumed): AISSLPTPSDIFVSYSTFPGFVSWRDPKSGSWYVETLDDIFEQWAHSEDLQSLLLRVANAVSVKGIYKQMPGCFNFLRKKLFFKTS
Sequence of DNA dC->dU-editing enzyme APOBEC-3A (P31941 whole entry): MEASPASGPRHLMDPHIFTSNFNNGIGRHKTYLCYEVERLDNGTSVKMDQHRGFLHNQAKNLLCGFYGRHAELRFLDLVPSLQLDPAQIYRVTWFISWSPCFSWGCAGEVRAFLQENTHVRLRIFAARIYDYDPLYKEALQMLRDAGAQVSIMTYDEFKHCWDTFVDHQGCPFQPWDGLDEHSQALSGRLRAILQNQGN
Sequence of Genome polyprotein (Q2Q167 whole entry): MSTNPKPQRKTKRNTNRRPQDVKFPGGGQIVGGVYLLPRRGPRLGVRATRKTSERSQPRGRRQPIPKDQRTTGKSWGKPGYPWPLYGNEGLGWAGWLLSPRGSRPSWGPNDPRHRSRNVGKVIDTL

SMILES: COCCN(C(=O)COC(=O)c1cc2c(s1)CCC2)c1c(N)n(Cc2ccccc2)c(=O)[nH]c1=O
IC50 (Genome polyprotein): 48.6 µM (not active) | IC50 (Large T antigen): 57.7 µM (active) | IC50 (Troponin, cardiac muscle): 19.7 µM (inactive) | IC50 [1]: > 66.6 µM (inactive) | IC50 [2]: 1.42 µM (active) | AC50 (Caspase-6): 0.198 µM (active) | AC50 (Caspase-9): 12.1 µM (active) | AC50 [3]: > 30 µM (inactive) | AC50 (Caspase-8): > 70 µM (inactive)

IC50 [4]: > 20 µM (inactive)
SMILES: CCOC(=O)c1cc(-c2ccccc2)nc2c1c(C)nn2-c1ccccn1
Absolute IC50 (CHOP) [5]: 10 µM

SMILES: Sc1n[nH]c(C2CCCCC2)n1
IC50 (Leucine aminopeptidase): 13.8 µM (active) | IC50 [6]: > 100 µM (inactive) | IC50 [7]: 8.98 µM (active)

IC50 [8]: 8 µM (active) | IC50 [9]: > 50 µM (inactive)
SMILES: COc1ccc(NC(=O)c2cc3c(=O)n(C)c4ccccc4c3s2)cc1OC
